The values that follow come from ChEMBL document CHEMBL1201862, “PubChem BioAssay data set” (2004).

Some test systems named below: SK-MEL-2; SNB-75; SF-539; CAKI-1; COLO 205; UACC-257; HCC 2998; SF-295; NCI-H23; A498; M14; KM12; SNB-19; TK-10; K562; MOLT-4.
Common to all, as to assay: NCI-60 cell line screen, 48 h

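The compound was tested at five concentrations on cells cultured in 96-well plates, with a 48-hour exposure period. GI50: concentration for 50% inhibition of growth.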 The source made the active and inactive calls. Cut-off read from the data, not from the text of the source: active = GI50 up to about 1.1 µM and inactive = higher.

For the compound `CC1OC(CC(=O)O)Cc2c(O)c3c(c(O)c21)C(=O)C=C(C1=CC(=O)c2c(O)c4c(c(O)c2C1=O)CC(CC(=O)O)OC4C)C3=O` (stereo unspecified), the GI50 is 21.2 µM (inactive) with SK-MEL-2; 59.6 µM (inactive) in the test on SNB-75; 19.1 µM (inactive) in the test with SF-539; 29.1 µM (inactive) in the test on CAKI-1; 5.28 µM (inactive) with COLO 205; 13.4 µM (inactive) in the test with UACC-257. Besides, the GI50 with HCC 2998 is 46.3 µM (inactive); in the test on SF-295, 88.7 µM (inactive); in the test on NCI-H23, 17.6 µM (inactive); in the test with A498, 18.9 µM (inactive); in the test on M14 it was 15 µM (inactive); in the test on KM12, 39.1 µM (inactive). For the same compound, the GI50 in the test with SNB-19 was > 100 µM (inactive); in the test with TK-10, 57.9 µM (inactive); in the test with K562 it was 9.4 µM (inactive); with MOLT-4, 2.69 µM (inactive).

As for `COc1ccc(C2COc3c(ccc(OC)c3OC)C2=O)cc1OC` (stereo unspecified), the GI50 in the test on SNB-75, in the test with SF-539, in the test with CAKI-1, in the test with COLO 205, in the test on UACC-257 and with HCC 2998 was > 100 µM (inactive) in each case. The GI50 with SF-295, in the test with NCI-H23, in the test on A498, in the test on M14, with KM12 and in the test on SNB-19 was > 100 µM (inactive) each time. The GI50 in the test on TK-10, in the test on K562 and with MOLT-4 was > 100 µM (inactive) throughout.

In the case of `O=C1C=C(Nc2ccc(Cl)cc2C(=O)c2ccccc2)c2ccccc2C1=O`, the GI50 in the test with SK-MEL-2, in the test on SNB-75, in the test on SF-539, in the test with CAKI-1, in the test with COLO 205 and in the test on UACC-257 was > 100 µM (inactive) in each case. For the same compound, the GI50 with HCC 2998, in the test on SF-295, in the test with NCI-H23, in the test with A498, with M14 and with KM12 was > 100 µM (inactive) each time. The GI50 in the test on SNB-19, in the test with TK-10, in the test with K562 and in the test on MOLT-4 was > 100 µM (inactive) in each case.

For `O=C1C(c2ccccc2)=C(c2ccccc2)C(c2ccc(-c3ccc(C4=C(c5ccccc5)C(=O)C(c5ccccc5)=C4c4ccccc4)cc3)cc2)=C1c1ccccc1`, the GI50 with SK-MEL-2 was > 100 µM (inactive); in the test on SNB-75 it was 48.1 µM (inactive); with SF-539 it was > 100 µM (inactive); with CAKI-1, > 100 µM (inactive); in the test with COLO 205, > 100 µM (inactive); with UACC-257 it was > 100 µM (inactive). In addition, the GI50 with SF-295, in the test on NCI-H23, in the test with A498, with M14, with KM12 and in the test with SNB-19 was > 100 µM (inactive) throughout. Moreover, the figures for the GI50 in the test on TK-10, with K562 and with MOLT-4 were > 100 µM (inactive), > 100 µM (inactive) and 77.8 µM (inactive), respectively.

On to `O=c1[nH]c(=O)n(C2CC(O)C(CO)O2)cc1C#Cc1ccc(C(F)(F)F)cc1` (stereo unspecified), for which the GI50 in the test with SK-MEL-2 is > 100 µM (inactive); with SNB-75, 61.5 µM (inactive); in the test on SF-539, > 100 µM (inactive); in the test with COLO 205, > 100 µM (inactive); with UACC-257, > 100 µM (inactive); with HCC 2998, > 100 µM (inactive). Besides, the GI50 in the test with SF-295, in the test with NCI-H23, in the test with M14, with KM12, in the test with SNB-19 and in the test on TK-10 was > 100 µM (inactive) in each case. The GI50 in the test with K562 and in the test on MOLT-4 was > 100 µM (inactive) each time.

Turning to `O=c1ccc2ccccc2c2ccccc12`, the GI50 in the test with SK-MEL-2 was 3.43 µM (inactive); in the test on SNB-75 it was 2.94 µM (inactive); in the test with SF-539 it was 1.97 µM (inactive); in the test on CAKI-1, 2.81 µM (inactive); in the test with COLO 205, 4.6 µM (inactive); in the test on UACC-257, 4.82 µM (inactive). Further, the GI50 with HCC 2998 was 9.64 µM (inactive); with SF-295, 3.61 µM (inactive); in the test with NCI-H23, 2.83 µM (inactive); in the test with A498, 22.7 µM (inactive); with M14 it was 2.42 µM (inactive); in the test with KM12 it was 2.58 µM (inactive). In addition, the GI50 in the test with SNB-19 is 2.82 µM (inactive); with TK-10 it was 14.5 µM (inactive); with K562, 3.7 µM (inactive); in the test with MOLT-4, 3.78 µM (inactive).

As to `Cc1cccc(NC(=O)C(=O)Cc2nc3ccccc3nc2O)c1C`, the GI50 in the test on SNB-75 is 84.9 µM (inactive); with SF-539, > 100 µM (inactive); in the test with CAKI-1, > 100 µM (inactive); in the test on COLO 205, > 100 µM (inactive); in the test with UACC-257 it was > 100 µM (inactive); in the test with HCC 2998 it was > 100 µM (inactive). Moreover, the GI50 with SF-295, in the test on NCI-H23, in the test on A498, in the test on M14, in the test on KM12 and in the test with SNB-19 was > 100 µM (inactive) throughout. Moreover, the GI50 in the test with TK-10 and with K562 was > 100 µM (inactive) each time.

For `COc1cc(Br)c(CC2NCCc3cc(OC)c(OC)cc32)cc1OC` (stereo unspecified), the GI50 was > 100 µM (inactive) with SK-MEL-2; 70.3 µM (inactive) in the test with SNB-75; 68.7 µM (inactive) with CAKI-1; 32.7 µM (inactive) in the test with COLO 205; 40.2 µM (inactive) in the test with UACC-257; 34.9 µM (inactive) with HCC 2998. Moreover, the GI50 with SF-295 was 12 µM (inactive); in the test on NCI-H23, 20.9 µM (inactive); in the test on A498 it was 76 µM (inactive); with M14, 44.7 µM (inactive); in the test with KM12 it was 73.6 µM (inactive); in the test with SNB-19 it was > 100 µM (inactive). For the same compound, the GI50 is 83.4 µM (inactive) in the test on TK-10, 32.8 µM (inactive) with K562 and 46.6 µM (inactive) with MOLT-4.

Consider `Cc1ccc2c(c1)CN1c3ccc(C)cc3CN2C1c1ccccc1O`, for which the GI50 with SK-MEL-2 was 48.9 µM (inactive); in the test on SNB-75, 0.667 µM (active); with SF-539, 49 µM (inactive); in the test with CAKI-1, > 100 µM (inactive); in the test with COLO 205, 78.7 µM (inactive); in the test on SF-295 it was 46.8 µM (inactive). For the same compound, the GI50 is 27.3 µM (inactive) with NCI-H23; > 100 µM (inactive) in the test on M14; 43.3 µM (inactive) in the test on KM12; 26.2 µM (inactive) in the test with TK-10; 34.7 µM (inactive) in the test on K562; 35.2 µM (inactive) in the test with MOLT-4.

Regarding `O=C(N/N=C/c1cc(Cl)cc(Cl)c1O)c1ccncc1`, the GI50 is > 100 µM (inactive) in the test with SNB-75; 68.5 µM (inactive) in the test with SF-539; > 100 µM (inactive) with COLO 205; > 100 µM (inactive) in the test with UACC-257; > 100 µM (inactive) with HCC 2998; 60.1 µM (inactive) in the test with SF-295. Moreover, the GI50 with NCI-H23 is 78.9 µM (inactive); in the test with A498 it was > 100 µM (inactive); in the test with M14, > 100 µM (inactive); in the test on KM12, > 100 µM (inactive); in the test with SNB-19, > 100 µM (inactive); in the test on TK-10 it was > 100 µM (inactive). The GI50 in the test on K562 was > 100 µM (inactive); with MOLT-4 it was 36.9 µM (inactive).

In the case of `CCOC(=O)[C@@]12C(C)=CC(=O)O[C@]1(C)C[C@H]2C#N`, the GI50 is > 100 µM (inactive) in the test on SK-MEL-2; 20.8 µM (inactive) in the test with SNB-75; > 100 µM (inactive) in the test on SF-539; > 100 µM (inactive) in the test with COLO 205; > 100 µM (inactive) with UACC-257; > 100 µM (inactive) in the test on HCC 2998. Moreover, the GI50 in the test with SF-295, in the test with NCI-H23, in the test with A498, in the test on M14, with KM12 and in the test on SNB-19 was > 100 µM (inactive) each time. In addition, the GI50 in the test with TK-10, in the test on K562 and in the test with MOLT-4 was > 100 µM (inactive) throughout.

Regarding `C[C@]12CCC(=O)C=C1CC[C@@H]1C2CC[C@]2(C)Nc3[nH]ncc3CC12` (stereo partly specified), the GI50 was > 100 µM (inactive) in the test with SK-MEL-2; 30.3 µM (inactive) in the test on SNB-75; > 100 µM (inactive) in the test with SF-539; > 100 µM (inactive) with CAKI-1; > 100 µM (inactive) in the test on UACC-257; > 100 µM (inactive) with HCC 2998. Besides, the GI50 was 94.2 µM (inactive) in the test with SF-295; > 100 µM (inactive) in the test with NCI-H23; > 100 µM (inactive) in the test on A498; > 100 µM (inactive) with M14; > 100 µM (inactive) in the test with KM12; > 100 µM (inactive) with TK-10. The GI50 in the test on K562 and in the test with MOLT-4 was > 100 µM (inactive) in each case.

As to `O=C(CCC(=O)Nc1cccc(Cl)c1)CC(=O)c1ccc(Cl)cc1`, the GI50 with SK-MEL-2, with SNB-75, in the test with SF-539, with CAKI-1, in the test with COLO 205 and in the test with UACC-257 was > 100 µM (inactive) in each case. Also, the GI50 in the test on HCC 2998, with SF-295, in the test with NCI-H23, in the test on M14, in the test on KM12 and with SNB-19 was > 100 µM (inactive) throughout. In addition, the GI50 in the test on TK-10, in the test on K562 and in the test with MOLT-4 was > 100 µM (inactive) throughout.
